Laboratory results: US20200276145A1, “REDUCING SIDE EFFECTS OF SHORT ACTING NO DONORS” (G. POHL-BOSKAMP GMBH & CO. KG, priority 2016, published 2020)
“And” between values parts separate entries of the source, which are not always exact repeats. Equal values may be shown once.

How the values were obtained:
[1] = Individual dose titration of sublingual nitroglycerin, side effects (Examples 1 and 2); type: in vivo, human
[2] = Phase IIa forced-titration trial of nitroglycerin sublingual powder in PAOD patients, interim analysis of headache (Example 3); type: in vivo, human; conditions: for Headache days (%): of study days corrected by drop-out days
Method: The patients are advised to take the dosages in the morning, noon and evening so that the short acting NO donor is administered in an intermittent manner.
Participants report adverse effects during the study with headache being one of the adverse effects.
The study has not yet been finalized but an interim analysis regarding headache as an adverse effect of the study drug has been performed (FIG. 2, Table 1-3).
At the time point of the interim analysis the study was still blinded, so with regard to patients' reported adverse event headache it could not be distinguished between the frequency of headache in the verum and the placebo group.
As the titration of the study medication takes place in the first 3 weeks, the analysis is focused on reported headache in the first three weeks plus in week 4 to also monitor possible late or ongoing side effects.
The analysis includes 35 participants so far which are at different time points of the study protocol. In FIG. 1 the individual headache days of the 35 participants are shown. Some participants have already reached the end of the 12-week treatment period and are in the follow-up period, some participants are still on treatment, but all participants […] have surpassed the titration phase and are on the final dosage of 0.7 mg GTN.

[3] = after oral administration; cited from earlier work
[4] = total of 2453 study days so far
[5] = weeks 1-4, of 927 corrected study days

O=[N+]([O-])OCC(CO[N+](=O)[O-])O[N+](=O)[O-] [nitroglycerin]
Side effects ([1]; Example 1, final dosage 0.7 mg after weekly increase 0.15-0.3-0.5-0.7 mg): without side effects | Side effects ([1]; Example 1, person, approximately 0.15 mg GTN TID sublingual powder): no headache or other known GTN side effects | Side effects ([1]; Example 1, sublingual nitroglycerin in a therapeutic dose, no titration): severe headache | Side effects ([1]; Example 2, 0.15 mg TID): no nausea or headache or other known GTN side effects | Side effects ([1]; Example 2, final dosage 0.4 mg TID after weekly increase 0.15-0.3-0.4 mg): without side effects | Side effects ([1]; Example 2, person, initial dose 0.4 mg sublingual, no titration): nausea and mild headache | Remaining share of participant headache days when the 3 participants are excluded ([2]; 3 participants with possible chronic headache or migraine excluded): 15% | Possibly headache related drop-outs ([2]; during the titration in the first 4 weeks): one | Headache days of the 3 participants with possible chronic headache or migraine background ([2]; first 4 weeks): 82 days | Participants in whom the headache lasted more than a week ([2]; first 4 weeks): 5 participants | Share of headache days due to the 3 participants with possible chronic headache or migraine background ([2]; first 4 weeks): 65% | Participants with headache on a single day ([2]; first 4 weeks, not during the first three days, of 35): 6 participants | Participants with headache that lasted more than one day ([2]; first 4 weeks, of 35): 6 participants | Additional participants dropped out due to headache ([2]; further course of the therapy): 2 participants | Overall headache frequency in the present study ([2]; interim analysis, blinded): below 30% | Headache days recorded for the 3 participants with continuous headache ([2]; overall study): 209 days and 212 days | Share of total headache days due to the 3 participants with continuous headache ([2]; overall study): 85% | Participants that have headache during the first days of treatment ([2]; starting dose 0.3 mg GTN): 5 participants | Percentage of participants that have headache during the first days of treatment ([2]; starting dose 0.3 mg GTN): 14.3% | Participant headache days recorded so far (overall study) [2, 4]: 245 days and 251 days | Percentage of headache days of total study days so far [2, 4]: 10% | Participants with possible chronic headache or migraine history ([2]; week 1): 3 | Headache corrected by participants with possible chronic headache or migraine history (%) ([2]; week 1, 0.3 mg GTN): 20% | Participant headache days corrected by participants with possible chronic headache or migraine history (%) ([2]; week 1, 0.3 mg GTN): 7.8% | Headache (%) of participants ([2]; week 1, 0.3 mg GTN, blinded): 28.6% | Headache days (%) ([2]; week 1, 0.3 mg GTN): 15.5% | Participants with possible chronic headache or migraine history ([2]; week 2): 3 | Headache corrected by participants with possible chronic headache or migraine history (%) ([2]; week 2, 0.5 mg GTN): 11.4% | Participant headache days corrected by participants with possible chronic headache or migraine history (%) ([2]; week 2, 0.5 mg GTN): 4.2% | Headache (%) of participants ([2]; week 2, 0.5 mg GTN, blinded): 20% | Headache (%) of participants ([2]; week 2, 0.5 mg GTN, blinded, listed as GTN): 20.0% | Headache days (%) ([2]; week 2, 0.5 mg GTN): 13.0% | Change of headache frequency as a result of the increased dosage ([2]; week 2, 3 or 4 versus week 1): did not monitor an increased headache frequency | Participants with possible chronic headache or migraine history ([2]; week 3): 3 | Headache corrected by participants with possible chronic headache or migraine history (%) ([2]; week 3, 0.7 mg GTN): 5.7% | Participant headache days corrected by participants with possible chronic headache or migraine history (%) ([2]; week 3, 0.7 mg GTN): 3.1% | Headache (%) of participants ([2]; week 3, 0.7 mg GTN, blinded): 14.3% | Headache days (%) ([2]; week 3, 0.7 mg GTN): 12.3% | Participants with possible chronic headache or migraine history ([2]; week 4): 3 | Headache corrected by participants with possible chronic headache or migraine history (%) ([2]; week 4, 0.7 mg GTN): 0% | Participant headache days corrected by participants with possible chronic headache or migraine history (%) ([2]; week 4, 0.7 mg GTN): 0% | Headache (%) of participants ([2]; week 4, 0.7 mg GTN, blinded): 8.6% | Headache days (%) ([2]; week 4, 0.7 mg GTN): 9.7% | Headache days during the first 4 weeks [2, 5]: 118 days and 127 days | Overall percentage of headache days during the first 4 weeks [2, 5]: 12.7%

O=[N+]([O-])O[C@@H]1CO[C@H]2[C@@H]1OC[C@@H]2O [isosorbide mononitrate]
Halftime [3]: around 5 hours
